Assay [1] deals with spontaneously hypertensive rats. Nature of the assay: Antihypertensive efficacy test in spontaneously hypertensive rats: systolic blood pressure change. It counts as in vivo, rat. The following applies: SHR; for antihypertensive effect compared with the corresponding unsalted compound: oral administration; for antihypertensive effect compared with the corresponding unsalted compound / systolic blood pressure compared with the control group: result in words; for systolic blood pressure compared with the control group: after 3 hours of administration; for Systolic blood pressure change, 1 hour after administration (average ± standard error) / Systolic blood pressure change, 3 hours after administration (average ± standard error) / Systolic blood pressure change, 5 hours after administration (average ± standard error) / Systolic blood pressure change, 7 hours after administration (average ± standard error) / Systolic blood pressure change, 10 hours after administration (average ± standard error) / Systolic blood pressure change, 24 hours after administration (average ± standard error): intragastric, 1 mg/kg (calculated by effective dose of Azilsartan), relative to before administration. The protocol: (§1) 12-week-old spontaneously hypertensive rats (hereinafter referred to as SHR, purchased from Beijing Weitong Lihua Experimental Animal Technology Co., Ltd.) were anesthetized with 2.5% sodium pentobarbital for intraperitoneal injection. After that, the blood pressure sensing catheter of hypertension implant was inserted into their abdominal aorta, while the implant was fixed to the abdominal wall, and then postoperative daily care was performed after suturing. Rats with systolic blood pressure exceeding 160 mm Hg were divided into 3 groups (control group, QR01019 group and QR01019K group) wherein each group has 8 rats. The control group was administrated 0.5% sodium carboxymethylcellulose (hereinafter referred to as CMC-Na); QR01019 group and QR01019K group were respectively administered, both of which were dissolved by 0.5% CMC-Na, by intragastric administration, at a dose of 1 mg/kg (calculated by the effective dose of Azilsartan) and a volume calculated by 4 mL/kg. The systolic blood pressure and heart rate of SHR were compared before and after administration (the systolic blood pressure and heart rate of SHR before administration as reference value), which were detected three times at each time point with the average value recorded.

Assay [2] shares this test system. Nature of the assay: Heart rate change in spontaneously hypertensive rats. It counts as in vivo, rat. Conditions: SHR; for heart rate lowering effect compared with the corresponding unsalted compound: oral administration, result in words; for Heart rate change, 1 hour after administration (average ± standard error) / Heart rate change, 3 hours after administration (average ± standard error) / Heart rate change, 5 hours after administration (average ± standard error) / Heart rate change, 7 hours after administration (average ± standard error) / Heart rate change, 10 hours after administration (average ± standard error) / Heart rate change, 24 hours after administration (average ± standard error): intragastric, 1 mg/kg (calculated by effective dose of Azilsartan), relative to before administration. The protocol:
as §1

Regarding `CCOc1nc2cccc(C(=O)OCOC(=O)C(C)(C)C)c2n1Cc1ccc(-c2ccccc2-c2noc(=O)[n-]2)cc1.[K+]` [QR01005K], in assay [1], the “antihypertensive effect compared with the corresponding unsalted compound” value was “more potent and longer-lasting”. Moreover, the “heart rate lowering effect compared with the corresponding unsalted compound” value in assay [2] was “more potent and longer-lasting”.
Consider `CCOc1nc2cccc(C(=O)OCCCCO[N+](=O)[O-])c2n1Cc1ccc(-c2ccccc2-c2noc(=O)[n-]2)cc1.[K+]` [QR01008K], for which, in assay [1], the “antihypertensive effect compared with the corresponding unsalted compound” value is “more potent and longer-lasting”. For the same compound, the “heart rate lowering effect compared with the corresponding unsalted compound” value in assay [2] is “more potent and longer-lasting”.
With `CCOc1nc2cccc(C(=O)OCc3c(-c4ccccc4)no[n+]3[O-])c2n1Cc1ccc(-c2ccccc2-c2noc(=O)[n-]2)cc1.[K+]` [QR01009K], in assay [1], the “antihypertensive effect compared with the corresponding unsalted compound” value was “more potent and longer-lasting”. The “heart rate lowering effect compared with the corresponding unsalted compound” value in assay [2] is “more potent and longer-lasting”.
As to `CCOc1nc2cccc(C(=O)OCCCCOc3no[n+]([O-])c3S(=O)(=O)c3ccccc3)c2n1Cc1ccc(-c2ccccc2-c2noc(=O)[n-]2)cc1.[K+]` [QR01011K], in assay [1], the “antihypertensive effect compared with the corresponding unsalted compound” value was “more potent and longer-lasting”. Moreover, the “heart rate lowering effect compared with the corresponding unsalted compound” value in assay [2] is “more potent and longer-lasting”.
As to `CCOc1nc2cccc(C(=O)OCc3oc(=S)oc3C)c2n1Cc1ccc(-c2ccccc2-c2noc(=O)[n-]2)cc1.[K+]` [QR01013K], the “antihypertensive effect compared with the corresponding unsalted compound” value in assay [1] is “more potent and longer-lasting”. Moreover, the “heart rate lowering effect compared with the corresponding unsalted compound” value in assay [2] was “more potent and longer-lasting”.
With `CCOc1nc2cccc(C(=O)OCOC(=O)OCc3nc(C)c(C)nc3C)c2n1Cc1ccc(-c2ccccc2-c2noc(=O)[n-]2)cc1.[K+]` [QR01017K], the “antihypertensive effect compared with the corresponding unsalted compound” value in assay [1] is “more potent and longer-lasting”. Besides, the “heart rate lowering effect compared with the corresponding unsalted compound” value in assay [2] is “more potent and longer-lasting”.
For `CCOc1nc2cccc(C(=O)OC(C)OC(=O)OCc3nc(C)c(C)nc3C)c2n1Cc1ccc(-c2ccccc2-c2noc(=O)[n-]2)cc1.[K+]` (stereo not drawn) [QR01019K], in assay [1], the “systolic blood pressure compared with the control group” value is listed as “significantly decreased”; the “Systolic blood pressure change, 1 hour after administration (average ± standard error)” value was −7.0 ± 3.4 mmHg; the “Systolic blood pressure change, 3 hours after administration (average ± standard error)” value is on record as −34.3 ± 1.9 mmHg; the “Systolic blood pressure change, 5 hours after administration (average ± standard error)” value is reported as −46.5 ± 2.5 mmHg. Further, in assay [1], the “Systolic blood pressure change, 7 hours after administration (average ± standard error)” value is recorded as −49.4 ± 4.1 mmHg; the “Systolic blood pressure change, 10 hours after administration (average ± standard error)” value is given as −45.3 ± 3.3 mmHg; the “Systolic blood pressure change, 24 hours after administration (average ± standard error)” value is given as −25.9 ± 3.4 mmHg; the “antihypertensive effect compared with the corresponding unsalted compound” value is listed as “more potent with a longer-lasting antihypertensive effect”. For the same compound, in assay [2], the “Heart rate change, 1 hour after administration (average ± standard error)” value is listed as −3.6 ± 2.4 times/minute; the “Heart rate change, 3 hours after administration (average ± standard error)” value is listed as −5.0 ± 2.5 times/minute; the “Heart rate change, 5 hours after administration (average ± standard error)” value is reported as −10.1 ± 3.0 times/minute; the “Heart rate change, 7 hours after administration (average ± standard error)” value is −17.5 ± 3.0 times/minute. Further, in assay [2], the “Heart rate change, 10 hours after administration (average ± standard error)” value is −25.4 ± 2.4 times/minute; the “Heart rate change, 24 hours after administration (average ± standard error)” value is on record as −28.6 ± 8 times/minute; the “heart rate lowering effect compared with the corresponding unsalted compound” value was “more potent with a longer-lasting heart rate lowing effect”.
Regarding `CCOc1nc2cccc(C(=O)OC(C)OC(=O)OCc3nc(C)c(C)nc3C)c2n1Cc1ccc(-c2ccccc2-c2noc(=O)[nH]2)cc1` (stereo not drawn) [QR01019], in assay [1], the “systolic blood pressure compared with the control group” value is on record as “significantly decreased”; the “Systolic blood pressure change, 1 hour after administration (average ± standard error)” value is on record as −4.9 ± 4.8 mmHg; the “Systolic blood pressure change, 3 hours after administration (average ± standard error)” value was −22.0 ± 3.6 mmHg; the “Systolic blood pressure change, 5 hours after administration (average ± standard error)” value was −30.5 ± 3.5 mmHg. Besides, in assay [1], the “Systolic blood pressure change, 7 hours after administration (average ± standard error)” value is −38.8 ± 2.3 mmHg; the “Systolic blood pressure change, 10 hours after administration (average ± standard error)” value is −33.0 ± 1.7 mmHg; the “Systolic blood pressure change, 24 hours after administration (average ± standard error)” value was −10.2 ± 2.1 mmHg. In assay [2], the “Heart rate change, 1 hour after administration (average ± standard error)” value is −3.4 ± 2.6 times/minute; the “Heart rate change, 3 hours after administration (average ± standard error)” value is −2.33 ± 2.6 times/minute; the “Heart rate change, 5 hours after administration (average ± standard error)” value is reported as −6.5 ± 2.8 times/minute; the “Heart rate change, 7 hours after administration (average ± standard error)” value was −6.2 ± 3.0 times/minute. Moreover, in assay [2], the “Heart rate change, 10 hours after administration (average ± standard error)” value is −12.3 ± 2.8 times/minute and the “Heart rate change, 24 hours after administration (average ± standard error)” value is −6.7 ± 2.6 times/minute.
In the case of `CCOc1nc2cccc(C(=O)OCOC(=O)OCc3no[n+]([O-])c3C)c2n1Cc1ccc(-c2ccccc2-c2noc(=O)[n-]2)cc1.[K+]` [QR01020K], the “antihypertensive effect compared with the corresponding unsalted compound” value in assay [1] is “more potent and longer-lasting”. In assay [2], the “heart rate lowering effect compared with the corresponding unsalted compound” value is “more potent and longer-lasting”.
Turning to `CCOc1nc2cccc(C(=O)OCc3no[n+]([O-])c3C)c2n1Cc1ccc(-c2ccccc2-c2noc(=O)[n-]2)cc1.[K+]` [QR01023K], in assay [1], the “antihypertensive effect compared with the corresponding unsalted compound” value was “more potent and longer-lasting”. In addition, the “heart rate lowering effect compared with the corresponding unsalted compound” value in assay [2] is “more potent and longer-lasting”.
As for `CCOc1nc2cccc(C(=O)OCc3no[n+]([O-])c3C(C)(C)C)c2n1Cc1ccc(-c2ccccc2-c2noc(=O)[n-]2)cc1.[K+]` [QR01026K], the “antihypertensive effect compared with the corresponding unsalted compound” value in assay [1] is “more potent and longer-lasting”. Besides, in assay [2], the “heart rate lowering effect compared with the corresponding unsalted compound” value is “more potent and longer-lasting”.
In the case of `CCOc1nc2cccc(C(=O)OCOC(=O)OCc3ccno3)c2n1Cc1ccc(-c2ccccc2-c2noc(=O)[n-]2)cc1.[K+]` [QR01030K], in assay [1], the “antihypertensive effect compared with the corresponding unsalted compound” value is “more potent and longer-lasting”. The “heart rate lowering effect compared with the corresponding unsalted compound” value in assay [2] is “more potent and longer-lasting”.
Take `CCOc1nc2cccc(C(=O)OCOC(=O)OCc3cn(C)cn3)c2n1Cc1ccc(-c2ccccc2-c2noc(=O)[n-]2)cc1.[K+]` [QR01031K]: in assay [1], the “antihypertensive effect compared with the corresponding unsalted compound” value was “more potent and longer-lasting”. Moreover, in assay [2], the “heart rate lowering effect compared with the corresponding unsalted compound” value is “more potent and longer-lasting”.
With `CCOc1nc2cccc(C(=O)OCOC(=O)OCc3ccn(C)c3)c2n1Cc1ccc(-c2ccccc2-c2noc(=O)[n-]2)cc1.[K+]` [QR01032K], in assay [1], the “antihypertensive effect compared with the corresponding unsalted compound” value is “more potent and longer-lasting”. Moreover, in assay [2], the “heart rate lowering effect compared with the corresponding unsalted compound” value was “more potent and longer-lasting”.
In the case of `CCOc1nc2cccc(C(=O)OC(C)OC(=O)OCc3ccn(C)c3)c2n1Cc1ccc(-c2ccccc2-c2noc(=O)[n-]2)cc1.[K+]` (stereo not drawn) [QR01033K], the “antihypertensive effect compared with the corresponding unsalted compound” value in assay [1] is “more potent and longer-lasting”. Besides, in assay [2], the “heart rate lowering effect compared with the corresponding unsalted compound” value was “more potent and longer-lasting”.
Consider `CCOc1nc2cccc(C(=O)OCc3no[n+]([O-])c3CO[N+](=O)[O-])c2n1Cc1ccc(-c2ccccc2-c2noc(=O)[n-]2)cc1.[K+]` [QR01034K], for which the “antihypertensive effect compared with the corresponding unsalted compound” value in assay [1] is “more potent and longer-lasting”. Further, the “heart rate lowering effect compared with the corresponding unsalted compound” value in assay [2] was “more potent and longer-lasting”.
With `CCOc1nc2cccc(C(=O)OC3CCc4c3no[n+]4[O-])c2n1Cc1ccc(-c2ccccc2-c2noc(=O)[n-]2)cc1.[K+]` (stereo not drawn) [QR01035K], in assay [1], the “antihypertensive effect compared with the corresponding unsalted compound” value is “more potent and longer-lasting”. Besides, in assay [2], the “heart rate lowering effect compared with the corresponding unsalted compound” value was “more potent and longer-lasting”.
For `CCOc1nc2cccc(C(=O)OCc3no[n+]([O-])c3C#N)c2n1Cc1ccc(-c2ccccc2-c2noc(=O)[n-]2)cc1.[K+]` [QR01036K], the “antihypertensive effect compared with the corresponding unsalted compound” value in assay [1] is “more potent and longer-lasting”. For the same compound, in assay [2], the “heart rate lowering effect compared with the corresponding unsalted compound” value was “more potent and longer-lasting”.

The values are drawn from patent publication US11786471B2, “Complex disintegrant system for oral solid preparation and oral solid preparation comprising said complex disintegrant system” (WUHAN LL SCIENCE AND TECHNOLOGY DEVELOPMENT CO., LTD., priority 2016, dated 2023).
